Here are results for three compounds from ChEMBL document CHEMBL1201862, “PubChem BioAssay data set” (2004).

A word on the AC50: it is the midpoint of the concentration-response curve, whichever way the signal moves. What is called IC50 is the concentration that gives 50% inhibition. Usually EC50 stands for the concentration at which the effect is half-maximal.

Active and inactive are the calls of the source. Bounds are passed on as bounds.

Assay [1] is described as follows: HEK293T cytotoxicity, dose response, cytotoxicity control for miR-122 modulator project, cell-based, inhibitor set, cherry-pick, set 2 (AID 720697). The format is functional.
A short description of assay [2]: Fluorescence-based cell-based high throughput dose response assay for inhibitors of the interaction of nucleotide-binding oligomerization domain containing 2 (NOD2) and the receptor-interacting serine-threonine kinase 2 (RIPK2). The conditions noted are these: Homo sapiens. The format is functional.
Assay [3] concerns the target T1, Zinc finger protein mex-5 (Caenorhabditis elegans, UniProt Q9XUB2).
T1 sequence (Q9XUB2 whole entry): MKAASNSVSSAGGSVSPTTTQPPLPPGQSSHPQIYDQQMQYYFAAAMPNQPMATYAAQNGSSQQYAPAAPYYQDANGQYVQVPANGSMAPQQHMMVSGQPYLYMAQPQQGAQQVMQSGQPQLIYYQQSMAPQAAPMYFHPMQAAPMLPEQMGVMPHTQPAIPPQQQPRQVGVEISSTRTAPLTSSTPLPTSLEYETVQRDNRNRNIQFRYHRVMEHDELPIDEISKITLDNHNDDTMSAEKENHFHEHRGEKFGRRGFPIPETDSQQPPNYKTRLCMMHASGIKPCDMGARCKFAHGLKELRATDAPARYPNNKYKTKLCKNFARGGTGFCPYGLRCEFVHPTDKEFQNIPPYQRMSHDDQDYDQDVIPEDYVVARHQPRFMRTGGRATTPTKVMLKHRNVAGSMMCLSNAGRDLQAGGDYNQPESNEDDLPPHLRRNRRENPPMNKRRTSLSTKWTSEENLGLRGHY
The assay is described as follows: MEX-5/TCR-2 RNA interaction inhibitors, dose response, biochemical, C. elegans, fluorescence polarization (AID 1960).

Assay [4] addresses T2, RNA-binding protein pos-1 (Caenorhabditis elegans, UniProt G5EF15).
T2 sequence (G5EF15 whole entry): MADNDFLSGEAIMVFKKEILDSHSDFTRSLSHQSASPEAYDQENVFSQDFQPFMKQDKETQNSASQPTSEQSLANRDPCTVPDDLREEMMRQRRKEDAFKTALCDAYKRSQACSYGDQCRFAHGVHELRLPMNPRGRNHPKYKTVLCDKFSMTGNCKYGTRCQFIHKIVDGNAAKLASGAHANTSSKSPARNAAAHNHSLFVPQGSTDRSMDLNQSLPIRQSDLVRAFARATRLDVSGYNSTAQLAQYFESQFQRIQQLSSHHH
The assay is described as follows: inhibitors of POS-1/mex-3 RNA binding, dose response, biochemical, fluorescence polarization (AID 1964).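 Also: purified POS-1 fused to maltose binding protein made in E. coli; potency of compounds blocking POS-1 binding to fluorescent RNA.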 In general terms: Fluorescence polarisation rises when a labelled molecule tumbles more slowly, as on binding a larger partner.

Assay [5] addresses T3, 1-phosphatidylinositol 4,5-bisphosphate phosphodiesterase gamma-1 (Homo sapiens, UniProt P19174).
T3 sequence (P19174 whole entry): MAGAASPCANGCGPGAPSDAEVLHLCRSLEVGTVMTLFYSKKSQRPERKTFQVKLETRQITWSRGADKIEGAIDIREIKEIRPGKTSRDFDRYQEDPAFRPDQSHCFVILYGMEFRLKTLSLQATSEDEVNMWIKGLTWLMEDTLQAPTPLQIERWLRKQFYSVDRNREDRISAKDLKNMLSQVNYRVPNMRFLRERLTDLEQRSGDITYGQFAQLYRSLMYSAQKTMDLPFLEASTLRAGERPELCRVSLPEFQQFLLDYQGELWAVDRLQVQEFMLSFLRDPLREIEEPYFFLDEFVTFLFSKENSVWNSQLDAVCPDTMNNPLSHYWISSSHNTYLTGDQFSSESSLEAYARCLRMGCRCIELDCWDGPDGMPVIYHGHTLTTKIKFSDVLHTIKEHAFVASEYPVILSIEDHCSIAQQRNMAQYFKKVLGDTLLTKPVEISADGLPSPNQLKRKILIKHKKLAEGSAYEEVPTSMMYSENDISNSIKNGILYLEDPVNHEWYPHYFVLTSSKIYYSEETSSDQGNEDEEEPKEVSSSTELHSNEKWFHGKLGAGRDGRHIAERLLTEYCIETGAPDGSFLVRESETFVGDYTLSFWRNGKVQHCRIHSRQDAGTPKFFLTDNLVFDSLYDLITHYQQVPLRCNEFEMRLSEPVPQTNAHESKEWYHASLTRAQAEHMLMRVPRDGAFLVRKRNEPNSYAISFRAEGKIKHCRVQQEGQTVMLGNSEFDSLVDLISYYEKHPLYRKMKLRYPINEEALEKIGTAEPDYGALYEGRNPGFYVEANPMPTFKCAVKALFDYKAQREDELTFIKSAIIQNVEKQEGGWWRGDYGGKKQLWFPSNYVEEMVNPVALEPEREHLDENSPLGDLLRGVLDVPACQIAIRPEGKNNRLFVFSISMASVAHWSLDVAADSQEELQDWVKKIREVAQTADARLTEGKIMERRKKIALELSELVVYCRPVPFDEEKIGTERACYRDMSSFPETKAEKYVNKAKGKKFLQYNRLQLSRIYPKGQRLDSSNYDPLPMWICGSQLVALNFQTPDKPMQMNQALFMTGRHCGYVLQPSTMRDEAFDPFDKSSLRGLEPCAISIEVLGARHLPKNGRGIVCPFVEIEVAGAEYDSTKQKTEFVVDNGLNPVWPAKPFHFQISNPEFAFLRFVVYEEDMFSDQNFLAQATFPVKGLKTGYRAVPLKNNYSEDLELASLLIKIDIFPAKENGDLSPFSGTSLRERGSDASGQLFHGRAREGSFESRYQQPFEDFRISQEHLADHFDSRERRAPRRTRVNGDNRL
Kind of assay: Counterscreen for inhibitors of phospholipase C isozymes (PLC-B3): Fluorescence-based biochemical high throughput dose response assay to identify inhibitors of phospholipase C isozymes (PLC-gamma1).

For assay [6], the target named is Peroxisome proliferator-activated receptor gamma/Nuclear receptor corepressor 2 (Homo sapiens, UniProt P37231+Q9Y618). The format is functional.
A further assay addresses SUMO-activating enzyme (Homo sapiens, UniProt Q9UBT2). The assay is described as follows: SUMOylation inhibitor hit validation, confirmation, SUMOylation inhibitor project, biochemical, AlphaScreen (AID 2018). The format is functional. Background: Alpha assays give light when donor and acceptor beads are brought close together.
Assay [7] is described as follows: inhibitors of HIV Env-driven cell fusion, dose response, cherry-pick (AID 652057). The format is functional, cell-based.
Assay [8] in a line: inhibitors of intracellular T. cruzi replication, confirmation, NIH3T3 host cells, beta-gal luminescence (AID 2044).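 Also: intracellular parasites grown in NIH/3T3 mouse fibroblasts as host cells; luminescent beta-galactosidase reporter signal from transgenic T. cruzi replicating inside host cells; inhibitors lower the luminescence signal.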 The format is functional, cell-based.

Chain of SUMO-activating enzyme (Q9UBE0 whole entry, the tested form may be a part): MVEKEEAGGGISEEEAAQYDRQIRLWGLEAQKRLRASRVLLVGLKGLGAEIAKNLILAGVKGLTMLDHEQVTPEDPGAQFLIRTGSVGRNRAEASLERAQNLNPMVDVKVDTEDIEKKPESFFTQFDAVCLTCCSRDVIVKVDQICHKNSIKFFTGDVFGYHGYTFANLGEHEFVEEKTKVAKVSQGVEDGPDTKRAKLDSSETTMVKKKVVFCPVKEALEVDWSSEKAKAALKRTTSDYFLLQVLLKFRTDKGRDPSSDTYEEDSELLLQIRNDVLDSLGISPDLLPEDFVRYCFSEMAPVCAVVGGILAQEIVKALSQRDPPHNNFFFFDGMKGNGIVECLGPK
Chain of SUMO-activating enzyme (Q9UBT2 whole entry, the tested form may be a part): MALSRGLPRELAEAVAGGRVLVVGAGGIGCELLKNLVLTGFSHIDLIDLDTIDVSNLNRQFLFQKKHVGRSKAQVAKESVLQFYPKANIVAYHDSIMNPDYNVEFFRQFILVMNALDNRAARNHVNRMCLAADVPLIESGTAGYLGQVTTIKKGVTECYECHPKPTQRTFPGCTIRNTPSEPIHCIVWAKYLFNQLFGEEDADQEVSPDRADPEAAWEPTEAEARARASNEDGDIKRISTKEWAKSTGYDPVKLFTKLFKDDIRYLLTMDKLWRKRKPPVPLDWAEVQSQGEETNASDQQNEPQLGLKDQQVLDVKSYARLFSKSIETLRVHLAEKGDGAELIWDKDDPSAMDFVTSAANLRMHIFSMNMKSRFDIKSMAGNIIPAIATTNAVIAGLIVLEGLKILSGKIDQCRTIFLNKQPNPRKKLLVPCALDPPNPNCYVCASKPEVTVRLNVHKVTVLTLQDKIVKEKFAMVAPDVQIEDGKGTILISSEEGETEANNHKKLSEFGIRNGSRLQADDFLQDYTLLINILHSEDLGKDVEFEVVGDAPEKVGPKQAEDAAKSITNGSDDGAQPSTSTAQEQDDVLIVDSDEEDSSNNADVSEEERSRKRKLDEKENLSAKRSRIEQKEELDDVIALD
Chain of Peroxisome proliferator-activated receptor gamma/Nuclear receptor corepressor 2 (P37231 whole entry): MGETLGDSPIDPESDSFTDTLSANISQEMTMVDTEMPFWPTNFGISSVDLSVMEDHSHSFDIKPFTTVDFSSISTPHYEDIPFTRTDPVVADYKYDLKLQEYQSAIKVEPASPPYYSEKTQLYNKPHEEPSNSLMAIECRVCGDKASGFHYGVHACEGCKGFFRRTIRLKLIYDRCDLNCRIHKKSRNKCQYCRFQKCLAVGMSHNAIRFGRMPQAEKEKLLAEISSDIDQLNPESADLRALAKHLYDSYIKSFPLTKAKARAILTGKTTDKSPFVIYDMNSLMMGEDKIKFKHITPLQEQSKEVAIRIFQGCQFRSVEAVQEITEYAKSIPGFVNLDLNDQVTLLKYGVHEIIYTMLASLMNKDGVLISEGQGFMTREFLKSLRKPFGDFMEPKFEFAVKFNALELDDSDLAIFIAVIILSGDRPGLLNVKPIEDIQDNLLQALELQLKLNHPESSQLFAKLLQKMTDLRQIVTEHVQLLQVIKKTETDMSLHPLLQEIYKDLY
Chain of Peroxisome proliferator-activated receptor gamma/Nuclear receptor corepressor 2 (Q9Y618 whole entry): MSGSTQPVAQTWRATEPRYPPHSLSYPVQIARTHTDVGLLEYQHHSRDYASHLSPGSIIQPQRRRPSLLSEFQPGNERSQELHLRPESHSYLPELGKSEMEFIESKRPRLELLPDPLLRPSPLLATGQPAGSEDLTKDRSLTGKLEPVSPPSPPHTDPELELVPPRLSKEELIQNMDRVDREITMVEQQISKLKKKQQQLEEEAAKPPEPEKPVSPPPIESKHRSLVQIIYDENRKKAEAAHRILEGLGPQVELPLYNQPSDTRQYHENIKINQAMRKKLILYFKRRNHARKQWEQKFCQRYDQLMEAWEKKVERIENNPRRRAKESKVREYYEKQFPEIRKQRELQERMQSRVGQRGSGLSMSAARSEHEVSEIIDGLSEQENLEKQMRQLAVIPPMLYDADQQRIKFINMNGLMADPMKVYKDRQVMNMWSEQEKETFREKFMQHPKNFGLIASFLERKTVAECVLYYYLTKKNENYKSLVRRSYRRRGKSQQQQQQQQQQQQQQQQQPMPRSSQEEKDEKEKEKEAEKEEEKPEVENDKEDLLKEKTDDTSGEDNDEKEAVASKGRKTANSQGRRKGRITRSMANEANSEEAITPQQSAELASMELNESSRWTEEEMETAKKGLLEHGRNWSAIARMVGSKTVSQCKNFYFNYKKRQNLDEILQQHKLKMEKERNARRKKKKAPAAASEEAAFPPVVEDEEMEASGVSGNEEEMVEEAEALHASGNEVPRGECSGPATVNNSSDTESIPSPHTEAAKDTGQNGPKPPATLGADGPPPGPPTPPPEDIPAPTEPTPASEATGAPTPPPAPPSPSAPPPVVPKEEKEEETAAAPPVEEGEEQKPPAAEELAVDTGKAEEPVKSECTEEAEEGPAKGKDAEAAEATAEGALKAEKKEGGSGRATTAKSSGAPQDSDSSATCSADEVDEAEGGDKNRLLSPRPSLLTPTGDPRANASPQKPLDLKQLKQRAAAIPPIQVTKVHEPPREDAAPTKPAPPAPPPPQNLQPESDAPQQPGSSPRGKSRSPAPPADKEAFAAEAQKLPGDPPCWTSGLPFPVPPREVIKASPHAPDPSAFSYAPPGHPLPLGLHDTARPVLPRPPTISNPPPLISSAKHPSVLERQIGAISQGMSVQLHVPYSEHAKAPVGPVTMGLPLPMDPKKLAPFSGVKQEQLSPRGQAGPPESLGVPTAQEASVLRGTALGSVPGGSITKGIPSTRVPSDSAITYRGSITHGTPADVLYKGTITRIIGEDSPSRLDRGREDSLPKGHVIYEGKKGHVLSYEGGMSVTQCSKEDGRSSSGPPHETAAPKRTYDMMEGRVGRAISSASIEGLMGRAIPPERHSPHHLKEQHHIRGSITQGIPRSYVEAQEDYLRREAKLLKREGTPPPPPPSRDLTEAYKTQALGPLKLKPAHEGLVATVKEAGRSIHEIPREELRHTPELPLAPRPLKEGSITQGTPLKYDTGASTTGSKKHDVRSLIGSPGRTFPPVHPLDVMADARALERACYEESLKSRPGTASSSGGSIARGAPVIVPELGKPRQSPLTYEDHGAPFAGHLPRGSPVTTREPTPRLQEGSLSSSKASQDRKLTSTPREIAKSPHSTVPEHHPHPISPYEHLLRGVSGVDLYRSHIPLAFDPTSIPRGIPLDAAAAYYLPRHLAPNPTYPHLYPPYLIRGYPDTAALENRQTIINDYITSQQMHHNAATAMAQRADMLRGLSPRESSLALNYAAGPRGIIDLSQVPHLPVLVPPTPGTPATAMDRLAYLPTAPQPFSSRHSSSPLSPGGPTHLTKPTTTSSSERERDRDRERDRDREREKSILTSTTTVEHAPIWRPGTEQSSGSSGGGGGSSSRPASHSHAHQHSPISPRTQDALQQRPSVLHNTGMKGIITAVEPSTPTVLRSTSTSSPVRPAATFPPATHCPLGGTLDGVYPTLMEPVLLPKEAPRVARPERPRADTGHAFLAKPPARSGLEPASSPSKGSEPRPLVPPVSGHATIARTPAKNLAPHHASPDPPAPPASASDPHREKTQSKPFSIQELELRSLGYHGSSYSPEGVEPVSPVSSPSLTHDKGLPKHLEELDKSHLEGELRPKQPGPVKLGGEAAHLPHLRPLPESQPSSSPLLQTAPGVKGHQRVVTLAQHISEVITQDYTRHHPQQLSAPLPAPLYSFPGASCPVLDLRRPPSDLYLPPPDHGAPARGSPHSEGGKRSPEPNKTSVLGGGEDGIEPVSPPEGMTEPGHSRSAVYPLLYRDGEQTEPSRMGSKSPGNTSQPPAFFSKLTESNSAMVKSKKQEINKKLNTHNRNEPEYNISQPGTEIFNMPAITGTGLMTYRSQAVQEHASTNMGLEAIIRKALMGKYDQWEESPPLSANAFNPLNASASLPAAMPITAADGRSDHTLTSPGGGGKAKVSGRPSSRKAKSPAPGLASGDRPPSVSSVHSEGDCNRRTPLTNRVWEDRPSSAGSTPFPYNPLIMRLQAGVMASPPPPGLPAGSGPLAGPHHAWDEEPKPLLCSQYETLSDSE

Take `Cc1ccc(C(=O)OCn2ncc(Cl)c(Cl)c2=O)cc1`: the concentration at half-maximal activity (AC50) in assay [1] is 4.05 µM (active). The half-maximal inhibitory concentration (IC50) in assay [2] was 0.889 µM (active).
`O=C(O)CC(C(=O)O)N1C(=O)/C(=C/C=C/c2ccco2)SC1=S` (centres undefined): the concentration giving a half-maximal response (EC50) was 23.3 µM (active) in [3] and 10.4 µM (active) in [4]. Also, the IC50 in assay [5] is > 1.51 µM (active); in [6], > 39.8 µM (not active); on SUMO-activating enzyme it was 1.12 µM (active).
For `CCCC(=O)NC(c1cccs1)c1cc(Cl)c2cccnc2c1O` (centres undefined), in assay [7], the AC50 is 4.9 µM (active). Also, in assay [8], the EC50 is 1.06 µM (active).
